Assay results from PMC8459971, “Evaluation of the hepatotoxicity of the novel GPR40 (FFAR1) agonist CPL207280 in the rat and monkey” (PLoS ONE, 2021).
Values joined by “and” are separate entries in the source; they are usually repeats but may differ in a detail not shown here. Equal entries are not always repeated.

Test system: HepG2 cells
Assay: Respiration in hepatocytes (Seahorse XF Mito stress test)
Type: cell-based, human
Conditions: for oxygen consumption rate, mito stress tracing: Fig2 A; for ECAR (Extracellular Acidification Rate) / OCR (Basal Oxygen Consumption rate): replicates

CC#C[C@@H](CC(=O)O)c1ccc(OCC(C)=C(C)C)cc1 [CPL207280]
oxygen consumption rate, mito stress tracing (HepG2, 0.3 uM, 34.6705 min): 80.249 and 97.2155 and 86.8514
oxygen consumption rate, mito stress tracing (HepG2, 0.3 uM, 41.3548 min): 35.437 and 46.6744 and 43.9128
oxygen consumption rate, mito stress tracing (HepG2, 0.3 uM, 47.9665 min): 35.8498 and 44.0725 and 43.5554
oxygen consumption rate, mito stress tracing (HepG2, 0.3 uM, 54.5812 min): 34.6812 and 46.6208 and 43.7024
oxygen consumption rate, mito stress tracing (HepG2, 0.3 uM, 61.2916 min): 130.123 and 163.716 and 142.011
oxygen consumption rate, mito stress tracing (HepG2, 0.3 uM, 67.9128 min): 106.485 and 133.91 and 115.698
oxygen consumption rate, mito stress tracing (HepG2, 0.3 uM, 74.5347 min): 96.5173
oxygen consumption rate, mito stress tracing (HepG2, 1 uM, 34.6705 min): 100.011 and 78.8082 and 81.9508
oxygen consumption rate, mito stress tracing (HepG2, 1 uM, 41.3548 min): 47.2411 and 41.158 and 37.0741
oxygen consumption rate, mito stress tracing (HepG2, 1 uM, 47.9665 min): 46.2402 and 40.9403 and 37.3629
oxygen consumption rate, mito stress tracing (HepG2, 1 uM, 54.5812 min): 47.0103 and 40.8472 and 36.7203
oxygen consumption rate, mito stress tracing (HepG2, 1 uM, 61.2916 min): 170.96 and 125.782 and 138.858
oxygen consumption rate, mito stress tracing (HepG2, 1 uM, 67.9128 min): 139.39 and 102.287 and 110.384
oxygen consumption rate, mito stress tracing (HepG2, 1 uM, 74.5347 min): 123.934 and 92.2309 and 99.0802
oxygen consumption rate, mito stress tracing (HepG2, 10 uM, 34.6705 min): 110.191 and 84.6025 and 86.6099
oxygen consumption rate, mito stress tracing (HepG2, 10 uM, 41.3548 min): 53.0343 and 43.3081 and 40.0605
oxygen consumption rate, mito stress tracing (HepG2, 10 uM, 47.9665 min): 52.304 and 44.0598 and 40.3019
oxygen consumption rate, mito stress tracing (HepG2, 10 uM, 54.5812 min): 53.3375 and 43.9407 and 40.3833
oxygen consumption rate, mito stress tracing (HepG2, 10 uM, 61.2916 min): 205.106 and 144.168 and 145.662
oxygen consumption rate, mito stress tracing (HepG2, 10 uM, 67.9128 min): 156.881 and 114.329 and 108.157
oxygen consumption rate, mito stress tracing (HepG2, 10 uM, 74.5347 min): 137.02 and 102.413 and 95.1094
oxygen consumption rate, mito stress tracing (HepG2, 30 uM, 34.6705 min): 92.7755 and 86.7994 and 98.474
oxygen consumption rate, mito stress tracing (HepG2, 30 uM, 41.3548 min): 47.1023 and 44.4378 and 48.0839
oxygen consumption rate, mito stress tracing (HepG2, 30 uM, 47.9665 min): 46.5085 and 44.5297 and 49.242
oxygen consumption rate, mito stress tracing (HepG2, 30 uM, 54.5812 min): 47.3133 and 45.4103 and 49.1801
oxygen consumption rate, mito stress tracing (HepG2, 30 uM, 61.2916 min): 166.246 and 150.833 and 168.619
oxygen consumption rate, mito stress tracing (HepG2, 30 uM, 67.9128 min): 122.701 and 115.579 and 125.99
oxygen consumption rate, mito stress tracing (HepG2, 30 uM, 74.5347 min): 107.636 and 100.89 and 113.574
oxygen consumption rate, mito stress tracing (HepG2, 100 uM, 34.6705 min): 67.4412 and 69.6068 and 55.4444
oxygen consumption rate, mito stress tracing (HepG2, 100 uM, 41.3548 min): 37.8597 and 39.5148 and 33.1927
oxygen consumption rate, mito stress tracing (HepG2, 100 uM, 47.9665 min): 37.9692 and 40.1535 and 34.8525
oxygen consumption rate, mito stress tracing (HepG2, 100 uM, 54.5812 min): 38.5804 and 40.5605 and 35.0114
oxygen consumption rate, mito stress tracing (HepG2, 100 uM, 61.2916 min): 98.1667 and 106.839 and 80.4832
oxygen consumption rate, mito stress tracing (HepG2, 100 uM, 67.9128 min): 74.25 and 83.2846 and 59.4526
ECAR (Extracellular Acidification Rate) (HepG2, 0.3 uM): 0.9978 and 0.9743 and 0.8743
OCR (Basal Oxygen Consumption rate) (HepG2, 0.3 uM): 0.9555 and 0.9023 and 1.068
ECAR (Extracellular Acidification Rate) (HepG2, 1 uM): 0.9613 and 0.9697 and 0.955
OCR (Basal Oxygen Consumption rate) (HepG2, 1 uM): 0.9695 and 0.8683 and 1.043
ECAR (Extracellular Acidification Rate) (HepG2, 10 uM): 1.014 and 1.053 and 0.9962
